# Assay results as given in US9937250B2, “Immunogenic tumor associated stromal cell antigen peptides and methods of their use” (University of Pittsburgh—Of the Commonwealth System of …, priority 2011, dated 2018).
# Tested on: CD8+ splenocytes
# Test: Tc1 response to DC.IL12/peptide vaccination (splenic CD8+ T cell IFN-γ ELISA against peptide-pulsed T2 cells)
# Type: in vivo, HHD mice
# Conditions: DC.IL12 pulsed with peptide(s), two s.c. vaccinations; versus DC only
# Description: FIGS. 9A-9B show a series of graphs illustrating induction of specific/protective CD8^+ T cells reactive against TASA as a consequence of DC/peptide-based vaccination. In FIG. 9A, HHD mice (five animals/cohort) were vaccinated twice (d-14, d-7) subcutaneously with PBS or with isologous DC.IL12 pulsed with PBS or synthetic peptides (Table 6) derived from the indicated TASA. In cases where more than 1 peptide was identified for a given target antigen, an equimolar pool of the indicated peptides (each 10 μM) was pulsed onto DC.IL12 and used for vaccination in the relevant cohort. One week after the second immunization, spleens were harvested and splenic CD8^+ T cells isolated using MACS-beads (Miltenyi). T cells were stimulated in vitro for 48 h using the HLA-A2^+ T2 cell line pulsed with relevant TASA vs. irrelevant HIV-nef190-198 ([…]; ref. 24) peptides. Cell-free supernatants were then recovered and IFN-γ levels by ELISA. Data are reported as mean+/−SD for triplicate ELISA determinations, and are representative of 3 independent experiments performed. *p<0.05 vs. HIV-nef control peptide responses. In FIG. 9B, HHD mice were vaccinated twice (days −14 and −7; right flank) subcutaneously with PBS or with isologous DC.IL12 pulsed with PBS or synthetic TASA peptides as indicated in FIG. 1A. In cases where more than 1 peptide is identified for a given target antigen, an equimolar pool of the indicated peptides (each 10 μM) was pulsed onto DC.IL12 and used for vaccination in the relevant cohort. One week after the booster vaccine (i.e. day zero), animals were challenged subcutaneously on their left flank with 2×10^6 MC38 colon carcinoma cells. Tumor growth was then monitored every 3-4 days through day 24. All data represent mean tumor area (in mm^2)+/−SD determined from 5 mice/cohort, and are representative of three independent experiments performed. *p<0.05 versus DC only on the indicated days.
# Vaccine Experiments. For prophylactic experiments, HHD mice were immunized subcutaneously on the right flank with 100 μl PBS or PBS containing 10^6 syngenic DC.IL12 cells that had been untreated or pre-pulsed for 4 h at 37° C. with 10 μM synthetic peptide(s). Immunizations occurred on days −14 and −7, with mice subsequently receiving injections of MC38 (2×10^6) tumor cells in the left flank on d0. In all cases, treatment groups contained 5 mice per cohort. For analysis of tumor cellular composition in repeat experiments, MC38 tumors were isolated by surgical resection 10 days after tumor inoculation and prepared for fluorescence imaging, as described below. […] Mice were then untreated or treated with control, syngenic DC.IL12 or DC.IL12 (10^6 cells injected subcutaneously in the left flank on days 7 and 14) pulsed with synthetic TBVA peptides. In some assays, as indicated, in vivo antibody depletions (on days 6, 13 and 20 post-tumor inoculation to assess early involvement or on days 60 and 67 or 180 and 187 to assess late involvement) of protective CD4^+ T cells or CD8^+ T cells were performed and monitored as previously described (Zhao et al., Mol Ther., 19:805-814, 2011). In all cases, tumor size (area) was monitored every 3-4 days and is reported as mean+/−SD in mm^2.
# Evaluation of Specific CD8^+ T Cell Responses in HHD Mice. MACS (Miltenyi Biotec) CD8^+ splenocytes were harvested (from 3 mice/group) 7 days after the second round of DC-based vaccination (i.e. day 21 after tumor inoculation) and analyzed for reactivity against unpulsed T2 cells, TBVA peptide-pulsed T2 cells, or day 19 (flow-sorted) B16-derived PDGFRβ^+CD31^negH-2K^b(neg) pericytes or PDGFRβ^negCD31^+H-2K^b(neg) VEC isolated as previously described (Zhao et al., Mol Ther., 19:805-814, 2011). Where indicated, 10 μg of anti-HLA-A2 mAb BB7.2 or control anti-class II mAb L243 (both from ATCC, Manassas, Va.) were added to replicate co-culture wells. After 48 h, supernatants were analyzed for mIFN-γ content by specific ELISA (BD-Biosciences; lower detection limit=31.3 pg/ml). […]
sequence,measurement,value
LAALPHSCL (listed as Homo sapiens),Tc1 Response to Peptide Vaccine (HHD),"+ (+, p < 0.05 versus DC only)"
